According to ChEMBL document CHEMBL1201862, “PubChem BioAssay data set” (2004):
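In this assay, cells in 96-well plates receive the compound at five concentrations for 48 hours. Endpoints are linearly interpolated between the surrounding concentrations. GI50 = concentration required for 50% inhibition of growth.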 Active and inactive are the calls of the source. No stated cut-off is given here; in the data, active = GI50 up to about 1.1 µM and inactive = higher.

What was measured:
Assay in all cases: NCI tumour cell line growth inhibition, 48 h
[1] = test system: ACHN
[2] = test system: Hs-578T
[3] = test system: HOP-92
[4] = test system: MDA-MB-435
[5] = test system: KM12
[6] = test system: SN12C
[7] = test system: SK-MEL-28
[8] = test system: PC-3
[9] = test system: OVCAR-5
[10] = test system: MCF7
[11] = test system: NCI/ADR-RES
[12] = test system: MDA-MB-231
[13] = test system: M14
[14] = test system: CCRF-CEM
[15] = test system: OVCAR-8
[16] = test system: HCC 2998
[17] = test system: RXF 393
[18] = test system: SR
[19] = test system: UACC-62
[20] = test system: SK-OV-3

| SMILES | GI50 [1] | GI50 [2] | GI50 [3] | GI50 [4] | GI50 [5] | GI50 [6] | GI50 [7] | GI50 [8] | GI50 [9] | GI50 [10] | GI50 [11] | GI50 [12] | GI50 [13] | GI50 [14] | GI50 [15] | GI50 [16] | GI50 [17] | GI50 [18] | GI50 [19] | GI50 [20] |
| --- | --- | --- | --- | --- | --- | --- | --- | --- | --- | --- | --- | --- | --- | --- | --- | --- | --- | --- | --- | --- |
| C/C(=C/CO[Si](C)(C)C(C)(C)C)C(=O)N(C)c1ccccc1I | 17.3 µM (inactive) | 18.2 µM (inactive) | 10.5 µM (inactive) | 17.2 µM (inactive) | 16.5 µM (inactive) | 17.2 µM (inactive) | 17.9 µM (inactive) | 14.1 µM (inactive) | 14.2 µM (inactive) | 16.9 µM (inactive) | 17.4 µM (inactive) | 15.1 µM (inactive) | 15.2 µM (inactive) | 15.2 µM (inactive) | 16.9 µM (inactive) | 14.3 µM (inactive) | 16.6 µM (inactive) | 11.6 µM (inactive) | 14.8 µM (inactive) | 18 µM (inactive) |
| CC(=O)NCCC1CN(C(=O)/C=C\C#C[Si](C)(C)C)c2ccccc21 (stereo not given) | 26.6 µM (inactive) | 33 µM (inactive) | 41.1 µM (inactive) | 21.2 µM (inactive) | 24.7 µM (inactive) | 37.3 µM (inactive) | 50.8 µM (inactive) | 27 µM (inactive) | 17.1 µM (inactive) | 5.36 µM (inactive) | 22.1 µM (inactive) | 17.3 µM (inactive) | 13.3 µM (inactive) | 11.8 µM (inactive) | 37.9 µM (inactive) | 20.1 µM (inactive) | 12.1 µM (inactive) | > 10 µM (inactive) | 8.49 µM (inactive) | 25.3 µM (inactive) |
| COC(=O)C1=C(O)C(C(=O)OC)C2CC(=O)CC1C2(C)C (stereo not given) | > 100 µM (inactive) | 11.2 µM (inactive) | > 100 µM (inactive) | > 100 µM (inactive) | > 100 µM (inactive) | > 100 µM (inactive) | > 100 µM (inactive) | > 100 µM (inactive) | > 100 µM (inactive) | > 100 µM (inactive) | > 100 µM (inactive) | > 100 µM (inactive) | > 100 µM (inactive) | > 100 µM (inactive) | > 100 µM (inactive) | > 100 µM (inactive) | > 100 µM (inactive) | > 100 µM (inactive) | > 100 µM (inactive) | > 100 µM (inactive) |
| CCOC(=O)/C(=C\c1ccnc2ccccc12)P(=O)(OCC)OCC | 2.08 µM (inactive) | 3.21 µM (inactive) | 2.49 µM (inactive) | 2.75 µM (inactive) | 4.01 µM (inactive) | 3.01 µM (inactive) | 1.57 µM (inactive) | 5.53 µM (inactive) | 2.25 µM (inactive) | 1.4 µM (inactive) | 1.72 µM (inactive) | 2.11 µM (inactive) | 1.93 µM (inactive) | 0.366 µM (active) | 1.81 µM (inactive) | 12.9 µM (inactive) | 2.62 µM (inactive) | 2.24 µM (inactive) | 2.65 µM (inactive) | 4.99 µM (inactive) |
| CCC1(C(=O)OC(C)(C)C)OC12C(C)CCCC2C (stereo not given) | 24.2 µM (inactive) | 90.2 µM (inactive) | 34.2 µM (inactive) | 41.2 µM (inactive) | 37.3 µM (inactive) | 62.1 µM (inactive) | > 100 µM (inactive) | 57.9 µM (inactive) | > 100 µM (inactive) | 24.3 µM (inactive) | > 100 µM (inactive) | > 100 µM (inactive) | 41.2 µM (inactive) | 18.7 µM (inactive) | 78.7 µM (inactive) | 18.3 µM (inactive) | 19.8 µM (inactive) | 18.5 µM (inactive) | 50.4 µM (inactive) | 73.6 µM (inactive) |
| O=S(=O)(O)c1cc(/N=[N+](\[O-])c2cc(S(=O)(=O)O)c3ccccc3c2)cc2ccccc12 | > 100 µM (inactive) | 33.5 µM (inactive) | > 100 µM (inactive) | > 100 µM (inactive) | > 100 µM (inactive) | 23.6 µM (inactive) | > 100 µM (inactive) | > 100 µM (inactive) | 32.5 µM (inactive) | 30.1 µM (inactive) | > 100 µM (inactive) | > 100 µM (inactive) | 35.7 µM (inactive) | 29.7 µM (inactive) | > 100 µM (inactive) | > 100 µM (inactive) | 43.5 µM (inactive) | 38.5 µM (inactive) | > 100 µM (inactive) | > 100 µM (inactive) |
